Reference: publication PMC12538274, “Paltusotine versus octreotide: different effects on radioligand uptake in neuroendocrine tumours” (Endocrine Oncology, 2025)
Where two headings read alike, the source gives them in different places.

Key:
[1] = cited from earlier work
[2] = cited from earlier work; remark: listed apart in the source
Excerpt: Paltusotine is currently being investigated in a randomised phase 2 trial in NET patients with the carcinoid syndrome (NCT05361668), with promising preliminary results ([13]), and a phase 3 trial is currently being planned ([14]). […] Recently, paltusotine received FDA approval for the treatment of patients with acromegaly ([11], [12]).

[3] = tested on: forskolin-stimulated cAMP accumulation; set-up: method as in PMID 36810324; settings: read-out: Inhibition of forskolin-stimulated cAMP accumulation, EC50; cited from earlier work
[4] = tested on: patient-derived GEP-NET primary cultures; test: Cell Titer Blue cell viability assay, patient-derived GEP-NET primary cultures; type: cell-based, human; settings: 72 h, n = 5
Excerpt: Fresh patient-derived GEP-NET primary cultures were established from surgically-derived patient tumours as previously described ([18]). […] Eleven of these were metastatic GEP-NETs, including six […] = 2 with the carcinoid syndrome) and eight […]. The use of primary tumour tissue as part of NeoExNET was approved by the Ethics Committee of LMU Munich (project number 152-10) and by the Cantonal Ethics Committee Zurich (reference number BASEC 2017-00950). […] GEP-NET cell lines and primary cultures were treated for 72 h with either paltusotine or octreotide, and dimethyl sulfoxide (DMSO) was used as control. Cell Titer Blue® cell viability assay (Promega, USA) was then performed as previously described ([15], [21]). […] Cell line experiments were performed at least three times.

BON-1 SSTR2 cells = test: Cell Titer Blue cell viability assay, BON-1 SSTR2; type: cell-based, human; settings: 72 h, vs DMSO control
pituitary tumour cells = tested on: pituitary tumour cells; set-up: method as in PMID 36810324; settings: compared to octreotide; cited from earlier work
[5] = tested on: BON-1 cells (human panNET); test: Cell Titer Blue cell viability assay, BON-1; type: cell-based; settings: 72 h, vs DMSO control
Procedure: (§1) The BON-1 (human panNET; Prof. R Göke, University of Marburg, Germany), NCI-H727 (human bronchopulmonary NET; ATCC, USA) and QGP-1 cell lines (human panNET; JCRB Cell Bank, Japan) were cultured as previously described ([15]). Moreover, a stable hSSTR2 over-expressing BON-1 cell clone (BON-1 SSTR2) was generated as previously described ([16], [17]).
(§2) GEP-NET cell lines and primary cultures were treated for 72 h with either paltusotine or octreotide, and dimethyl sulfoxide (DMSO) was used as control. Cell Titer Blue® cell viability assay (Promega, USA) was then performed as previously described ([15], [21]). Each experiment included 3–4 samples per drug concentration and patient. Cell line experiments were performed at least three times.

[6] = tested on: NCI-H727 cells (human bronchopulmonary NET); test: Cell Titer Blue cell viability assay, NCI-H727; type: cell-based; settings: 72 h, vs DMSO control
Procedure: as §1, §2

[7] = tested on: NET patients with the carcinoid syndrome; settings: preliminary results, phase 2, NET patients with carcinoid syndrome; cited from earlier work
Excerpt: A newly developed, orally-bioavailable non-peptide SSTR2 agonist, paltusotine, might simplify SSA therapy and is taken orally once daily ([10]). Paltusotine recently received FDA approval for acromegaly treatment based on data from two phase 3 trials ([…]-1 and […]-2/NCT05192382) ([11], [12]).

[8] = tested on: β-arrestin recruitment (SSTR2, HEK293 cells); set-up: method as in PMID 36810324; settings: cited from earlier work
Excerpt: (§3) While G-protein (GP)- and arrestin (ARRB)-mediated effects are induced by full SSTR2 agonists such as octreotide ([35]), biased agonists with GP-mediated effects but diminished ARRB signalling have been reported ([35]). Arrestins play an important role in SSTR internalisation and recycling/degradation ([35]). Zhao et al. compared the molecular binding structure of octreotide and paltusotine to SSTR2 and their molecular signalling, examined β-arrestin recruitment and SSTR2 internalisation/loss of SSTR2 expression on the cell surface of HEK293 cells ([34]).

[9] = tested on: SSTR2 on the cell surface of HEK293 cells; set-up: method as in PMID 36810324; settings: cited from earlier work
Excerpt: as §3

[10] = tested on: QGP-1 cells (human panNET); test: Cell Titer Blue cell viability assay, QGP-1; type: cell-based; settings: 72 h, vs DMSO control
Procedure: as §1, §2

SSTR2 = settings: read-out: SSTR2 binding affinity, IC50; cited from earlier work
[11] = target: T1, hSSTR2 (stable hSSTR2 over-expressing BON-1 cells, BON-1 SSTR2) (Homo sapiens, UniProt P30874); test: 18F-SiTATE uptake assay; type: cell-based
T1 construct: expressed in transfected cells
T1 sequence (P30874 whole entry): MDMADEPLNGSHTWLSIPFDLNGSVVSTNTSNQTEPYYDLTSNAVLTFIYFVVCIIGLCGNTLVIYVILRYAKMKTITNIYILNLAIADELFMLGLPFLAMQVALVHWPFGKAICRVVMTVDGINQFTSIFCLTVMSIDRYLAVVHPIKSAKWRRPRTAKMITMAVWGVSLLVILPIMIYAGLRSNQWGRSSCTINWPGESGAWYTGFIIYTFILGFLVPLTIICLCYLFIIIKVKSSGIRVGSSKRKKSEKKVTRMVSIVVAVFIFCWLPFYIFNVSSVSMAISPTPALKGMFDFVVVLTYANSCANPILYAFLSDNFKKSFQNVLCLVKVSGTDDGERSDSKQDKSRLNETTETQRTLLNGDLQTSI

SSTR1/3/4/5 = tested on: SSTR1/3/4/5; set-up: method as in PMID 11980628; settings: cited from earlier work
Excerpt: However, according to current guidelines as well as the FDA/EMA labelling instructions regarding Lutathera®, SSA therapy needs to be discontinued before PRRT ([7], [8], [9]). These recommendations stem from the fact that both SSAs and PRRT target the SSTR2. […] Moreover, long-acting octreotide and prolonged-release lanreotide maintain platea ...

C[C@@H](O)[C@@H]1NC(=O)[C@H](CCCCN)NC(=O)[C@@H](Cc2c[nH]c3ccccc23)NC(=O)[C@H](Cc2ccccc2)NC(=O)[C@@H](NC(=O)[C@H](N)Cc2ccccc2)CSSC[C@@H](C(=O)N[C@H](CO)[C@@H](C)O)NC1=O [octreotide]
Plasma concentrations ([1]; subcutaneous injections, humans): up to 4 nM

N#Cc1cccc(-c2ccc3ncc(-c4cc(F)cc(F)c4)c(N4CCC(N)CC4)c3c2)c1O [paltusotine]
Oral bioavailability [2]: good oral bioavailability | EC50 [3]: 2080 ± 1390 pM | Overall effect on cell viability ([4]; 100 nM): overall slight anti-tumour effects | Overall effect on cell viability ([4]; 500 nM): overall slight anti-tumour effects | Plasma concentrations ([1]; in vivo): 22 to 406 nM | Effect on cell viability (BON-1 SSTR2 cells; BON-1 SSTR2, 4 nM): overall no anti-tumour effects | Effect on cell viability (BON-1 SSTR2 cells; BON-1 SSTR2, 400 nM): not found | Apoptotic rate (pituitary tumour cells): increased apoptotic rate compared to octreotide | Effect on cell viability ([5]; BON-1, 4 nM): overall no anti-tumour effects | Effect on cell viability ([5]; BON-1, 400 nM): slight, significant increase in viability | Effect on cell viability ([6]; NCI-H727, 4 nM): overall no anti-tumour effects | Effect on cell viability ([6]; NCI-H727, 400 nM): not found | Symptom control [7]: improved symptom control | Tolerability [7]: good tolerability | β-arrestin recruitment [8]: much lower β-arrestin recruitment | SSTR2 internalisation/desensitisation [9]: less SSTR2 internalisation/desensitisation | Effect on cell viability ([10]; QGP-1, 4 nM): overall no anti-tumour effects | Effect on cell viability ([10]; QGP-1, 400 nM): slight, significant decrease in cell viability | IC50 (SSTR2): 250 pM | Effect on 18F-SiTATE radioligand uptake compared to the unblocked control ([11]; 73–254 nM (1,000×) and 146–508 nM (2,000×)): no significant effects on cellular uptake | Effect on 18F-SiTATE radioligand uptake compared to the unblocked control ([11]; low, clinically-relevant concentrations 7.3–25.4 nM (100×)): no influence on radioligand binding compared to the unblocked control

lanreotide
Binding affinity to SSTR1/3/4/5 (SSTR1/3/4/5): reduced or no binding affinity | IC50 (SSTR2): 540 pM

somatostatin
IC50 (SSTR2): 150 pM
